Experimental data taken from the supplement of paper PMC10307832.

What was measured:
Experiment in all cases: relative viability (nuclei count vs DMSO), 5 days (fraction); higher = more cells survive
[1] = compound: C1COCCN1C2=NC(=NC3=C2OC4=C3C=CC=N4)C5=CC(=CC=C5)NC(=O)C6=CN=C(C=C6)N + CC1(C)CCC(c2ccc(Cl)cc2)=C(CN2CCN(c3ccc(C(=O)NS(=O)(=O)c4ccc(N[C@H](CCN5CCOCC5)CSc5ccccc5)c(S(=O)(=O)C(F)(F)F)c4)cc3)CC2)C1 [Navitoclax] (partner 0.5 µM)
In short: (§1)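 Lung cancer cell lines, seeded in 1536-well plates, were treated the following day by pin tool with a single drug or with five library-drug doses (not always all listed) in √10 steps on top of a fixed anchor-drug dose. Cells were fixed and nuclei stained in one step after 5 days, and nuclei were counted. Relative viability is the nuclei count for treated wells divided by that for vehicle wells, reported as medians of duplicate plates.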

SGI-1776 + OSI-027 = compound: CN1CCC(CNc2ccc3ncc(-c4cccc(OC(F)(F)F)c4)n3n2)CC1 [SGI-1776] + COc1cccc2cc(-c3nc([C@H]4CC[C@H](C(=O)O)CC4)n4ncnc(N)c34)[nH]c12 [OSI-027] (partner 0.5 µM)
In short: as §1

Entinostat + Linsitinib = compound: Nc1ccccc1NC(=O)c1ccc(CNC(=O)OCc2cccnc2)cc1 [Entinostat] + C[C@]1(O)C[C@@H](c2nc(-c3ccc4ccc(-c5ccccc5)nc4c3)c3c(N)nccn32)C1 [Linsitinib] (partner 1 µM)
In short: as §1

Entinostat + Trametinib = compound: Nc1ccccc1NC(=O)c1ccc(CNC(=O)OCc2cccnc2)cc1 [Entinostat] + CC(=O)Nc1cccc(-n2c(=O)n(C3CC3)c(=O)c3c(Nc4ccc(I)cc4F)n(C)c(=O)c(C)c32)c1 [Trametinib] (partner 0.02 µM)
In short: as §1

Cell Line | relative viability ([1]; first compound 0.06325 µM) | relative viability ([1]; first compound 0.2 µM) | relative viability ([1]; first compound 0.6325 µM) | relative viability ([1]; first compound 2 µM) | relative viability (SGI-1776 + OSI-027; first compound 0.08 µM) | relative viability (SGI-1776 + OSI-027; first compound 0.8 µM) | relative viability (SGI-1776 + OSI-027; first compound 2.53 µM) | relative viability (SGI-1776 + OSI-027; first compound 8 µM) | relative viability (Entinostat + Linsitinib; first compound 0.02 µM) | relative viability (Entinostat + Linsitinib; first compound 0.06325 µM) | relative viability (Entinostat + Linsitinib; first compound 0.2 µM) | relative viability (Entinostat + Linsitinib; first compound 0.6325 µM) | relative viability (Entinostat + Linsitinib; first compound 2 µM) | relative viability (Entinostat + Trametinib; first compound 0.02 µM) | relative viability (Entinostat + Trametinib; first compound 0.06325 µM) | relative viability (Entinostat + Trametinib; first compound 0.2 µM) | relative viability (Entinostat + Trametinib; first compound 0.6325 µM) | relative viability (Entinostat + Trametinib; first compound 2 µM) | relative viability ([1]; first compound 0.02 µM)
LCLC-97TM1 | 0.532 | 0.673 | 0.546 | 0.43 | 0.597 | 0.487 | 0.59 | 0.487 | 0.158 | 0.147 | 0.139 | 0.165 | 0.14 | 0.233 | 0.207 | 0.214 | 0.152 | 0.139 | 
LK-2 | 0.845 | 0.869 | 0.714 | 0.54 | 0.247 | 0.216 | 0.201 | 0.159 | 0.522 | 0.59 | 0.639 | 0.459 | 0.274 | 0.778 | 0.686 | 0.652 | 0.447 | 0.349 | 0.953
NCI-H3122 | 1.05 | 1.03 | 1.02 | 0.798 | 0.988 | 0.967 | 0.926 | 0.862 | 1.02 | 1.03 | 1.07 | 1.08 | 0.868 | 0.265 | 0.259 | 0.27 | 0.208 | 0.212 | 0.975
NCI-H2126 | 0.828 | 0.9 | 0.839 | 0.763 | 0.708 | 0.813 | 0.693 | 0.659 | 0.732 | 0.707 | 0.618 | 0.518 | 0.367 | 0.592 | 0.506 | 0.525 | 0.347 | 0.312 | 0.872
NCI-H520 | 1.17 | 1.06 | 1.07 | 0.713 | 0.255 | 0.263 | 0.249 | 0.223 | 1.03 | 1.05 | 1.09 | 0.897 | 0.412 | 0.698 | 0.906 | 0.604 | 0.698 | 0.355 | 1.12
LU99A | 0.842 | 0.786 | 0.587 | 0.277 | 0.294 | 0.286 | 0.303 | 0.262 | 0.505 | 0.552 | 0.479 | 0.394 | 0.348 | 0.599 | 0.615 | 0.504 | 0.471 | 0.378 | 0.779
NCI-H1666 | 0.96 | 0.722 | 0.687 | 0.573 | 0.953 | 0.853 | 0.759 | 0.674 | 0.874 | 0.783 | 0.476 | 0.498 | 0.313 | 0.817 | 0.883 | 0.763 | 0.611 | 0.572 | 0.856
NCI-H460 | 1.47 | 1.19 | 0.957 | 0.0442 | 0.68 | 0.587 | 0.646 | 0.255 | 0.664 | 0.685 | 0.378 | 0.0221 | 0.0142 | 0.226 | 0.0831 | 0.0851 | 0.0455 | 0.0239 | 1.38
